Test results published in patent US6444617B1, “Fused-heterocycle dicarboxylic acid diamide derivatives or salts thereof, herbicide and usage thereof” (Nihon Nohyaku Co., Ltd., priority 1998, dated 2002).

Experiments:
Type in all cases: in vivo
[1] = tested on: barnyard grass (Echinochloa crus-galli Beauv.); experiment: Test Example 1: herbicidal effect on paddy field weeds before emergence; conditions: Dosage 5 kg/ha
Method in brief: (§1)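 Grading reflects percent control relative to untreated plots, evaluated three weeks post-application. Treatment was a soil application of compound solution, predetermined dose, made to paddy-state pots before weed seeds germinated.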

[2] = tested on: bulrush (Scirpus juncoides Roxb.); experiment: as above; conditions: Dosage 5 kg/ha
Method in brief: as §1

[3] = tested on: barnyard grass (Echinochloa crus-galli Beauv.); experiment: Test Example 2: herbicidal effect on paddy field weeds after emergence; conditions: Dosage 5 kg/ha; one-leaved stage; 21 days after treatment
Method in brief: (§2)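 Weeds in flooded paddy-soil pots were grown to the one-leaved stage, then the soil was treated with the compound solution at a set dosage.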

[4] = tested on: bulrush (Scirpus juncoides Roxb.); experiment: as above; conditions: Dosage 5 kg/ha; one-leaved stage; 21 days after treatment
Method in brief: as §2

[5] = tested on: monochoria (Monochoria vaginalis Presl); experiment: as above; conditions: Dosage 5 kg/ha; one-leaved stage; 21 days after treatment
Method in brief: as §2

[6] = tested on: barnyard grass (Echinochloa crus-galli Beauv.), Ec; experiment: Test Example 3: herbicidal effect on upland weeds before emergence; conditions: dosage 5 kg/ha
Method in brief: (§3)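 Pre-emergence spray of liquid prep, compound at set concentration; read at 14 d post-treatment; weed-kill rate calculated, effect graded.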

[7] = tested on: bird's eye speedwell (Veronica persica Poir.), Vp; experiment: as above; conditions: dosage 5 kg/ha
Method in brief: as §3

[8] = tested on: cleavers (Galium aparine L.), Ga; experiment: as above; conditions: dosage 5 kg/ha
Method in brief: as §3

[9] = tested on: cocklebur (Xanthium strumarium L.), Xs; experiment: as above; conditions: dosage 5 kg/ha
Method in brief: as §3

[10] = tested on: forxtail grass (Alopecurus aequalis var. amurensis Ohwi), Am; experiment: as above; conditions: foxtail grass, dosage 5 kg/ha
Method in brief: as §3

[11] = tested on: velvetleaf (Abutilon theophtasti L.), At; experiment: as above; conditions: dosage 5 kg/ha
Method in brief: as §3

soybean plant (So) = experiment: Test Example 3: phytotoxicity to upland crop plants, treatment before emergence; conditions: dosage 5 kg/ha
Method in brief: (§4)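 Phytotoxicity scores for soybean and wheat were assigned by a set criterion 14 days after a pre-emergence spray of a liquid preparation containing the test compound at a prescribed concentration.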

wheat (Wh) = experiment: as above; conditions: dosage 5 kg/ha
Method in brief: as §4

[12] = tested on: barnyard grass (Echinochloa crus-galli Beauv.), Ec; experiment: Test Example 4: herbicidal effect on upland weeds after emergence; conditions: dosage 5 kg/ha; sprayed after emergence; judged 14 days after treatment
Method in brief: (§5)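 Seeds sown in soil and covered. Plants raised to specified leaf stages. Agent with test compound at a prescribed concentration sprayed. Herbicidal effect and crop damage scored after 14 days as weed-killing rate.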

[13] = tested on: bird's eye speedwell (Veronica persica Poir.), Vp; experiment: as above; conditions: dosage 5 kg/ha; sprayed after emergence; judged 14 days after treatment
Method in brief: as §5

[14] = tested on: cleavers (Galium aparine L.), Ga; experiment: as above; conditions: dosage 5 kg/ha; sprayed after emergence; judged 14 days after treatment
Method in brief: as §5

[15] = tested on: cocklebur (Xanthium strumarium L.), Xs; experiment: as above; conditions: dosage 5 kg/ha; sprayed after emergence; judged 14 days after treatment
Method in brief: as §5

[16] = tested on: forxtail grass (Alopecurus aequalis var. amurensis Ohwi), Am; experiment: as above; conditions: dosage 5 kg/ha; sprayed after emergence; judged 14 days after treatment
Method in brief: as §5

[17] = tested on: velvetleaf (Abutilon theophtasti L.), At; experiment: as above; conditions: dosage 5 kg/ha; sprayed after emergence; judged 14 days after treatment
Method in brief: as §5

soybean plant = experiment: Test Example 4: phytotoxicity to upland crop plants, treatment after emergence; conditions: dosage 5 kg/ha, sprayed after emergence, judged 14 days after treatment
Method in brief: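 Post-emergence foliar spray at a prescribed concentration, applied once the sown weeds and soybean reached defined leaf stages in soil vats; herbicidal effect and soybean injury scored after 14 days.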

wheat = experiment: as above; conditions: dosage 5 kg/ha, sprayed after emergence, judged 14 days after treatment
Method in brief: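 Weeds, soybean and wheat were sown in soil-filled vats, covered with soil and grown to set leaf stages before a post-emergence spray of an agent containing the compound at a prescribed concentration. Weed-killing rate and crop phytotoxicity were assessed 14 days after treatment.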

| Structure (SMILES) | Pre-emergence treatment Barnyard grass (herbicidal effect) [1] | Pre-emergence treatment Bulrush (herbicidal effect) [2] | Post-emergence treatment Barnyard grass (herbicidal effect) [3] | Post-emergence treatment Bulrush (herbicidal effect) [4] | Post-emergence treatment Monochoria (herbicidal effect) [5] | Herbicidal effect Ec [6] | Herbicidal effect Vp [7] | Herbicidal effect Ga [8] | Herbicidal effect Xs [9] | Herbicidal effect Am [10] | Herbicidal effect At [11] | Phytotoxicity So (soybean plant (So)) | Phytotoxicity Wh (wheat (Wh)) | Herbicidal effect Ec [12] | Herbicidal effect Vp [13] | Herbicidal effect Ga [14] | Herbicidal effect Xs [15] | Herbicidal effect Am [16] | Herbicidal effect At [17] | Phytotoxicity So (soybean plant) | further results |
| --- | --- | --- | --- | --- | --- | --- | --- | --- | --- | --- | --- | --- | --- | --- | --- | --- | --- | --- | --- | --- | --- |
| CCCNC(=O)c1nc2c(cc1C(=O)Nc1c(CC)ccc(Cl)c1CC)CCO2 [compound 919] | 5 (Weed-killing rate is 100%.) | 5 (Weed-killing rate is 100%.) | 5 (Weed-killing rate is 100%.) | 5 (Weed-killing rate is 100%.) | 5 (Weed-killing rate is 100%.) | 5 (Weed-killing rate is 100%.) | 5 (Weed-killing rate is 100%.) | 5 (Weed-killing rate is 100%.) | 5 (Weed-killing rate is 100%.) | 5 (Weed-killing rate is 100%.) | 5 (Weed-killing rate is 100%.) | 5 (Crop-killing rate is 100%.) | 5 (Crop-killing rate is 100%.) | 5 (Weed-killing rate is 100%.) | 5 (Weed-killing rate is 100%.) | 5 (Weed-killing rate is 100%.) | 5 (Weed-killing rate is 100%.) | 5 (Weed-killing rate is 100%.) | 5 (Weed-killing rate is 100%.) | 5 (Crop-killing rate is 100%.) | Phytotoxicity Wh (wheat): 5 (Crop-killing rate is 100%.) |
| CCCNC(=O)c1nc2onc(C)c2cc1C(=O)Nc1c(CC)ccc(Cl)c1CC [compound 1064] | 5 (Weed-killing rate is 100%.) | 5 (Weed-killing rate is 100%.) | 5 (Weed-killing rate is 100%.) | 5 (Weed-killing rate is 100%.) | 5 (Weed-killing rate is 100%.) | 5 (Weed-killing rate is 100%.) | 5 (Weed-killing rate is 100%.) | 5 (Weed-killing rate is 100%.) | 5 (Weed-killing rate is 100%.) | 5 (Weed-killing rate is 100%.) | 5 (Weed-killing rate is 100%.) | 4 (Crop-killing rate is 90-99%.) | 5 (Crop-killing rate is 100%.) | 5 (Weed-killing rate is 100%.) | 5 (Weed-killing rate is 100%.) | 5 (Weed-killing rate is 100%.) | 5 (Weed-killing rate is 100%.) | 5 (Weed-killing rate is 100%.) | 5 (Weed-killing rate is 100%.) | 4 (Crop-killing rate is 90-99%.) | Phytotoxicity Wh (wheat): 5 (Crop-killing rate is 100%.) |
| Cc1c(Cl)cccc1NC(=O)c1cc2c(C)noc2nc1C(=O)NC1CCCC1 [compound 1085] | 5 (Weed-killing rate is 100%.) | 5 (Weed-killing rate is 100%.) | 5 (Weed-killing rate is 100%.) | 5 (Weed-killing rate is 100%.) | 5 (Weed-killing rate is 100%.) | 5 (Weed-killing rate is 100%.) | 5 (Weed-killing rate is 100%.) | 5 (Weed-killing rate is 100%.) | 5 (Weed-killing rate is 100%.) | 5 (Weed-killing rate is 100%.) | 5 (Weed-killing rate is 100%.) | 4 (Crop-killing rate is 90-99%.) | 5 (Crop-killing rate is 100%.) | 5 (Weed-killing rate is 100%.) | 5 (Weed-killing rate is 100%.) | 4 (Weed-killing rate is 90-99%.) | 5 (Weed-killing rate is 100%.) | 5 (Weed-killing rate is 100%.) | 5 (Weed-killing rate is 100%.) | 4 (Crop-killing rate is 90-99%.) | Phytotoxicity Wh (wheat): 5 (Crop-killing rate is 100%.) |
| CCNC(=O)c1nc2c(cnn2C)cc1C(=O)Nc1c(CC)ccc(Cl)c1CC [compound 1087] | 5 (Weed-killing rate is 100%.) | 5 (Weed-killing rate is 100%.) | 5 (Weed-killing rate is 100%.) | 5 (Weed-killing rate is 100%.) | 5 (Weed-killing rate is 100%.) | 5 (Weed-killing rate is 100%.) | 5 (Weed-killing rate is 100%.) | 5 (Weed-killing rate is 100%.) | 5 (Weed-killing rate is 100%.) | 5 (Weed-killing rate is 100%.) | 5 (Weed-killing rate is 100%.) | 5 (Crop-killing rate is 100%.) | 5 (Crop-killing rate is 100%.) | 5 (Weed-killing rate is 100%.) | 5 (Weed-killing rate is 100%.) | 5 (Weed-killing rate is 100%.) | 5 (Weed-killing rate is 100%.) | 5 (Weed-killing rate is 100%.) | 5 (Weed-killing rate is 100%.) | 4 (Crop-killing rate is 90-99%.) | Phytotoxicity Wh (wheat): 5 (Crop-killing rate is 100%.) |
| CCCNC(=O)c1nc2c(cnn2C)cc1C(=O)Nc1c(CC)ccc(Cl)c1CC [compound 1088] | 5 (Weed-killing rate is 100%.) | 5 (Weed-killing rate is 100%.) | 5 (Weed-killing rate is 100%.) | 5 (Weed-killing rate is 100%.) | 5 (Weed-killing rate is 100%.) | 5 (Weed-killing rate is 100%.) | 5 (Weed-killing rate is 100%.) | 5 (Weed-killing rate is 100%.) | 5 (Weed-killing rate is 100%.) | 5 (Weed-killing rate is 100%.) | 5 (Weed-killing rate is 100%.) | 5 (Crop-killing rate is 100%.) | 5 (Crop-killing rate is 100%.) | 5 (Weed-killing rate is 100%.) | 5 (Weed-killing rate is 100%.) | 5 (Weed-killing rate is 100%.) | 5 (Weed-killing rate is 100%.) | 5 (Weed-killing rate is 100%.) | 5 (Weed-killing rate is 100%.) | 5 (Crop-killing rate is 100%.) | Phytotoxicity Wh (wheat): 5 (Crop-killing rate is 100%.) |
